From PMC12102759 (Protein Science : A Publication of the Protein Society, 2025)
Where two headings read alike, the source gives them in different places.

Test system: PABPC1 PABC
Assay type: binding, human
Settings: DMS-BM library, bait PABPC1 PABC, row aa = residue at this position; for DMS-derived PSSM value, position K9: K = wild type; for DMS-derived PSSM value, position L4 / DMS-derived PSSM value (averaged), position L2: L = wild type; for DMS-derived PSSM value, position S2 / DMS-derived PSSM value, position S15 / DMS-derived PSSM value (averaged), position S13: S = wild type
[1] = prey ATXN2, peptide KSTLNPNAKEFNPRSF, E = wild type
[2] = prey ATXN2, peptide KSTLNPNAKEFNPRSF, F = wild type
[3] = prey ATXN2, peptide KSTLNPNAKEFNPRSF
[4] = prey ATXN2, peptide KSTLNPNAKEFNPRSF, N = wild type
[5] = prey ATXN2, peptide KSTLNPNAKEFNPRSF, P = wild type
[6] = prey ATXN2, peptide KSTLNPNAKEFNPRSF, R = wild type
[7] = prey ATXN2, peptide KSTLNPNAKEFNPRSF, T = wild type
[8] = prey ATXN2, TLNPNAKEFNPRSF(averaged) over the two overlapping peptides
[9] = prey ATXN2, TLNPNAKEFNPRSF(averaged) over the two overlapping peptides, F = wild type
[10] = prey ATXN2, peptide TLNPNAKEFNPRSFSQ, P = wild type
[11] = prey ATXN2, TLNPNAKEFNPRSF(averaged) over the two overlapping peptides, N = wild type
[12] = prey ATXN2, peptide TLNPNAKEFNPRSFSQ, A = wild type
[13] = prey ATXN2, TLNPNAKEFNPRSF(averaged) over the two overlapping peptides, P = wild type
[14] = prey ATXN2, peptide TLNPNAKEFNPRSFSQ, N = wild type

## KSTLNPNAKEFNPRSF
Prey ATXN2, peptide KSTLNPNAKEFNPRSF, A = wild type
  DMS-derived PSSM value, position A8: 0.5804
[1]
  DMS-derived PSSM value, position E10: 0.1617
[2]
  DMS-derived PSSM value, position F11: 0.393
  DMS-derived PSSM value, position F16: 0.06015
[3]
  DMS-derived PSSM value, position K9: 0.008078
  DMS-derived PSSM value, position L4: 0.6837
  DMS-derived PSSM value, position S2: 0.03631
  DMS-derived PSSM value, position S15: 0.05273
[4]
  DMS-derived PSSM value, position N5: 0.9124
  DMS-derived PSSM value, position N7: 0.02963
  DMS-derived PSSM value, position N12: 0.02408
[5]
  DMS-derived PSSM value, position P6: 0.1132
  DMS-derived PSSM value, position P13: 0.007578
[6]
  DMS-derived PSSM value, position R14: 0.01898
[7]
  DMS-derived PSSM value, position T3: 0.04565

## TLNPNAKEFNPRSF(averaged) L2T (TTNPNAKEFNPRSF)
[8]
  DMS-derived PSSM value (averaged), position L2: 0

## TLNPNAKEFNPRSF(averaged) F14N (TLNPNAKEFNPRSN)
[9]
  DMS-derived PSSM value (averaged), position F14: 0.05683

## TLNPNAKEFNPRSF(averaged) L2E (TENPNAKEFNPRSF)
[8]
  DMS-derived PSSM value (averaged), position L2: 0.04453

## TLNPNAKEFNPRSFSQ P11K (TLNPNAKEFNKRSFSQ)
[10]
  DMS-derived PSSM value, position P11: 0

## KSTLNPNAKEFNPRSF R14P (KSTLNPNAKEFNPPSF)
[6]
  DMS-derived PSSM value, position R14: 0.00803

## KSTLNPNAKEFNPRSF N5Q (KSTLQPNAKEFNPRSF)
[4]
  DMS-derived PSSM value, position N5: 0

## TLNPNAKEFNPRSF(averaged) F14K (TLNPNAKEFNPRSK)
[9]
  DMS-derived PSSM value (averaged), position F14: 0.01179

## TLNPNAKEFNPRSFSQ F14N (TLNPNAKEFNPRSNSQ)
Prey ATXN2, peptide TLNPNAKEFNPRSFSQ, F = wild type
  DMS-derived PSSM value, position F14: 0.0664

## TLNPNAKEFNPRSF(averaged) N3L (TLLPNAKEFNPRSF)
[11]
  DMS-derived PSSM value (averaged), position N3: 0

## TLNPNAKEFNPRSF(averaged) L2Q (TQNPNAKEFNPRSF)
[8]
  DMS-derived PSSM value (averaged), position L2: 0

## TLNPNAKEFNPRSF(averaged) N5M (TLNPMAKEFNPRSF)
[11]
  DMS-derived PSSM value (averaged), position N5: 0.3686

## KSTLNPNAKEFNPRSF K9E (KSTLNPNAEEFNPRSF)
[3]
  DMS-derived PSSM value, position K9: 0.0298

## TLNPNAKEFNPRSFSQ A6S (TLNPNSKEFNPRSFSQ)
[12]
  DMS-derived PSSM value, position A6: 0.08307

## TLNPNAKEFNPRSF(averaged) N10W (TLNPNAKEFWPRSF)
[11]
  DMS-derived PSSM value (averaged), position N10: 0.1093

## TLNPNAKEFNPRSFSQ T1H (HLNPNAKEFNPRSFSQ)
Prey ATXN2, peptide TLNPNAKEFNPRSFSQ, T = wild type
  DMS-derived PSSM value, position T1: 0.01756

## TLNPNAKEFNPRSF(averaged) P4V (TLNVNAKEFNPRSF)
[13]
  DMS-derived PSSM value (averaged), position P4: 0.4012

## TLNPNAKEFNPRSFSQ N3G (TLGPNAKEFNPRSFSQ)
[14]
  DMS-derived PSSM value, position N3: 0

## KSTLNPNAKEFNPRSF N5L (KSTLLPNAKEFNPRSF)
[4]
  DMS-derived PSSM value, position N5: 0

## TLNPNAKEFNPRSF(averaged) N3I (TLIPNAKEFNPRSF)
[11]
  DMS-derived PSSM value (averaged), position N3: 0

## KSTLNPNAKEFNPRSF N5A (KSTLAPNAKEFNPRSF)
[4]
  DMS-derived PSSM value, position N5: 0

## TLNPNAKEFNPRSF(averaged) N5V (TLNPVAKEFNPRSF)
[11]
  DMS-derived PSSM value (averaged), position N5: 0.05544

## KSTLNPNAKEFNPRSF N7A (KSTLNPAAKEFNPRSF)
[4]
  DMS-derived PSSM value, position N7: 0.01018

## TLNPNAKEFNPRSFSQ S15H (TLNPNAKEFNPRSFHQ)
Prey ATXN2, peptide TLNPNAKEFNPRSFSQ
  DMS-derived PSSM value, position S15: 0.01215

## KSTLNPNAKEFNPRSF N12G (KSTLNPNAKEFGPRSF)
[4]
  DMS-derived PSSM value, position N12: 0.02172

## TLNPNAKEFNPRSFSQ E8R (TLNPNAKRFNPRSFSQ)
Prey ATXN2, peptide TLNPNAKEFNPRSFSQ, E = wild type
  DMS-derived PSSM value, position E8: 0

## TLNPNAKEFNPRSF(averaged) E8P (TLNPNAKPFNPRSF)
Prey ATXN2, TLNPNAKEFNPRSF(averaged) over the two overlapping peptides, E = wild type
  DMS-derived PSSM value (averaged), position E8: 0.1423

## KSTLNPNAKEFNPRSF E10G (KSTLNPNAKGFNPRSF)
[1]
  DMS-derived PSSM value, position E10: 0

## KSTLNPNAKEFNPRSF K9A (KSTLNPNAAEFNPRSF)
[3]
  DMS-derived PSSM value, position K9: 0.002649

## TLNPNAKEFNPRSFSQ P11F (TLNPNAKEFNFRSFSQ)
[10]
  DMS-derived PSSM value, position P11: 0.1255

## TLNPNAKEFNPRSFSQ P11M (TLNPNAKEFNMRSFSQ)
[10]
  DMS-derived PSSM value, position P11: 0.01106

## KSTLNPNAKEFNPRSF T3K (KSKLNPNAKEFNPRSF)
[7]
  DMS-derived PSSM value, position T3: 0

## TLNPNAKEFNPRSF(averaged) P11Y (TLNPNAKEFNYRSF)
[13]
  DMS-derived PSSM value (averaged), position P11: 0.02499

## TLNPNAKEFNPRSF(averaged) F9W (TLNPNAKEWNPRSF)
[9]
  DMS-derived PSSM value (averaged), position F9: 0.4279

## TLNPNAKEFNPRSF(averaged) S13F (TLNPNAKEFNPRFF)
[8]
  DMS-derived PSSM value (averaged), position S13: 0.01382

## TLNPNAKEFNPRSF(averaged) T1S (SLNPNAKEFNPRSF)
Prey ATXN2, TLNPNAKEFNPRSF(averaged) over the two overlapping peptides, T = wild type
  DMS-derived PSSM value (averaged), position T1: 0.002379

## KSTLNPNAKEFNPRSF L4V (KSTVNPNAKEFNPRSF)
[3]
  DMS-derived PSSM value, position L4: 0.01089

## KSTLNPNAKEFNPRSF S15P (KSTLNPNAKEFNPRPF)
[3]
  DMS-derived PSSM value, position S15: 0.04178

## TLNPNAKEFNPRSFSQ R12M (TLNPNAKEFNPMSFSQ)
Prey ATXN2, peptide TLNPNAKEFNPRSFSQ, R = wild type
  DMS-derived PSSM value, position R12: 0.04074

## KSTLNPNAKEFNPRSF E10L (KSTLNPNAKLFNPRSF)
[1]
  DMS-derived PSSM value, position E10: 0

## TLNPNAKEFNPRSFSQ N3M (TLMPNAKEFNPRSFSQ)
[14]
  DMS-derived PSSM value, position N3: 0

## KSTLNPNAKEFNPRSF F11T (KSTLNPNAKETNPRSF)
[2]
  DMS-derived PSSM value, position F11: 0

## TLNPNAKEFNPRSF(averaged) S13P (TLNPNAKEFNPRPF)
[8]
  DMS-derived PSSM value (averaged), position S13: 0.06349

## TLNPNAKEFNPRSF(averaged) F14S (TLNPNAKEFNPRSS)
[9]
  DMS-derived PSSM value (averaged), position F14: 0.01539

## TLNPNAKEFNPRSFSQ N5S (TLNPSAKEFNPRSFSQ)
[14]
  DMS-derived PSSM value, position N5: 0.00244

## KSTLNPNAKEFNPRSF T3I (KSILNPNAKEFNPRSF)
[7]
  DMS-derived PSSM value, position T3: 0.1667

## TLNPNAKEFNPRSF(averaged) F14W (TLNPNAKEFNPRSW)
[9]
  DMS-derived PSSM value (averaged), position F14: 0.01444

## KSTLNPNAKEFNPRSF S2E (KETLNPNAKEFNPRSF)
[3]
  DMS-derived PSSM value, position S2: 0.01242

## KSTLNPNAKEFNPRSF T3N (KSNLNPNAKEFNPRSF)
[7]
  DMS-derived PSSM value, position T3: 0.01165

## TLNPNAKEFNPRSF(averaged) P4K (TLNKNAKEFNPRSF)
[13]
  DMS-derived PSSM value (averaged), position P4: 0

## KSTLNPNAKEFNPRSF F11M (KSTLNPNAKEMNPRSF)
[2]
  DMS-derived PSSM value, position F11: 0

## TLNPNAKEFNPRSF(averaged) N5L (TLNPLAKEFNPRSF)
[11]
  DMS-derived PSSM value (averaged), position N5: 0.05209

## TLNPNAKEFNPRSFSQ A6G (TLNPNGKEFNPRSFSQ)
[12]
  DMS-derived PSSM value, position A6: 0

## KSTLNPNAKEFNPRSF P13W (KSTLNPNAKEFNWRSF)
[5]
  DMS-derived PSSM value, position P13: 0.01574

## KSTLNPNAKEFNPRSF N5E (KSTLEPNAKEFNPRSF)
[4]
  DMS-derived PSSM value, position N5: 0
